From US6841577B2, “Pesticidal activity of plant essential oils and their constituents” (Ecosmart Technologies, Inc., priority 1999, dated 2005)

Tests used:
[1] = system: octopamine receptor sites; assay: 3H-OA binding to ventral nerve cord / synaptosomal membrane protein; design: species or system American cockroach (Periplaneta americana); details: for dpm 3H-OA/500 μg protein: Table 2; for cpm 3H-OA/500 μg protein: Table 3; for classification with respect to octopamine receptor sites (OAR): based on the binding data of Tables 1-3
Method: Different concentrations of unlabeled octopamine (OA) (20, 30, 40, 50, 60, 100 ng) were tested on the binding activity as a positive control. Test chemicals were dissolved in acetone before the assay. Different concentrations of the test chemicals were added directly to the protein preparation from ventral nerve cord. The same amount of solvent (1 μl 0.1%) were added to the control samples. All assays with test chemicals were run in the presence and absence of 50 ng OA. All chemicals were added to the protein extract 20 min prior the addition of radio labeled ^3H-OA(100,000 cpm/sample). After 30 min at 24° C. of the addition of ^3H-OA, the reaction was stopped by the addition of ice-cold Tris buffer, and the samples were filtered through GF/C membrane using water vacuum. After two washes each with 5 ml Tris buffer, the membrane was removed, air dried and the radioactivity was counted in 4 ml liquid scintillation solution. The specific binding was calculated as the difference between the values in the presence and absence of unlabeled OA. All data are calculated as the mean±standard deviation of 5 assays.
Additional tests were conducted on radio labeled octopamine using other purified naturally occurring materials as given in Tables 2 and 3.

American cockroach [2] = assay: Lethal effect of injected test chemicals; format: in vivo; details: dead/10
Method: Further studies were conducted to determine the LD 50 of purified naturally occurring plant essential oils and/or their constituents. […] Ten roaches per dose were used. Another group of ten roaches received the same volume of vehicle only (0.5 μl) and used as a control group. Mortality was recorded 24, 48, and 72 hours after exposure.

American cockroach [3] = assay: Cross walk jar test on pre-treated surface; format: in vivo
Method: In the test, a known amount of the test material was dissolved in a known volume of acetone and applied to small jars and all inner bottom surfaces were covered. The bottom surface of each jar is approximately 250 cm^2. One hour after the acetone had completely evaporated, five American cockroaches were introduced to each jar. Control jars were treated exactly as above but with the known amount of acetone only.
The results of the “cross walk” jar tests are in Table 8 in which the “4-blend” was dispersed as an aerosol and a dust in the jar.
In this test, the acetone solution of the test material was placed in the jar and the roach inserted into the jar after the acetone had evaporated.
Mortality was measured 24 hours after exposure.
The “4-blend” and the individual constituents of the “4-blend” were tested using 10 cockroaches for each “cross walk” treatment. In addition, pyrethrins were tested separately and mixed with the various components.
A concentration of 100 mg/jar was used for each individual alone. In the co-treatment experiment without pyrethrins, 20 mg/jar for each chemical was used. In the cotreatment experiment with pyrethrins, 20 mg/jar for the naturally occurring plant material was used. Pyrethrins was used at 2 mg/jar. […] It was noted above that the mortality is dependent upon concentration. […] Some synergism is found between pyrethrins and either α-terpineol or benzyl alcohol.

[4] = 500 ng/ml, solvent control 1101 ± 120
[5] = 1000 ng/ml, solvent control 930 ± 89
[6] = 500 ng/ml, solvent control 1385 ± 101
[7] = 500 μg/roach injected into thoracic and abdominal segments, 24 hr.
[8] = 500 μg/roach injected, 72 hr., control 1/10
[9] = 1000 ng/ml, solvent control 1915 ± 110

Molecule	cpm 3H-OA/500 μg protein [1, 6]	classification with respect to octopamine receptor sites (OAR) [1]	agonist/antagonist note to 3H-OA binding ([1]; 500 ng/ml)	cpm 3H-OA/500 μg protein [1, 9]	also measured
CC(C)=CCCC(C)CCO (stereo not shown) [Citronellol]	–	–	–	–	dpm 3H-OA/500 μg protein [1, 4]: 999 ± 65 dpm 3H-OA/500 μg protein; dpm 3H-OA/500 μg protein [1, 5]: 557 ± 43 dpm 3H-OA/500 μg protein
CCOc1cc(C=O)ccc1O [Ethyl vanillin]	1723 ± 119 cpm 3H-OA/500 μg protein	Non-OAR Specific Toxicants	–	–	–
CC12CCC(CC1)C(C)(C)O2 [Eucaluptol, Eucalyptol]	1637 ± 095 cpm 3H-OA/500 μg protein	Non-OAR Specific Toxicants	antagonist	–	dpm 3H-OA/500 μg protein [1, 4]: 865 ± 45 dpm 3H-OA/500 μg protein; dpm 3H-OA/500 μg protein [1, 5]: 653 ± 36 dpm 3H-OA/500 μg protein; Mortality (American cockroach [2]; [7]): 0/10; Mortality (American cockroach [2]; 500 μg/roach injected, 48 hr.): 0/10; Mortality (American cockroach [2]; [8]): 0/10
COc1ccccc1O [Guaiacol]	1787 ± 151 cpm 3H-OA/500 μg protein	Non-OAR Specific Toxicants	–	–	–
COC(=O)c1ccccc1O [Methyl salicylate]	0084 ± 009 cpm 3H-OA/500 μg protein	extremely high OAR antagonists	antagonist	–	activity/binding at octopamine receptor sites, in words [1]: antagonists which are most strongly bound; mortality at 10 mg (American cockroach [3]; Periplaneta americana, 24 h): 0%; mortality at 20 mg (American cockroach [3]; Periplaneta americana, 24 h): 20%; mortality at 30 mg (American cockroach [3]; Periplaneta americana, 24 h): 40%; mortality at 40 mg (American cockroach [3]; Periplaneta americana, 24 h): 80%; mortality at 50 mg (American cockroach [3]; Periplaneta americana, 24 h): 100%; pesticidal activity against cockroaches, in words (American cockroach [3]; in vivo): high pesticidal activity
O=Cc1ccc2c(c1)OCO2 [Piperonal]	1680 ± 131 cpm 3H-OA/500 μg protein	Non-OAR Specific Toxicants	–	–	–
CC(=O)OCc1ccc2c(c1)OCO2 [Piperonyl acetate]	1090 ± 092 cpm 3H-OA/500 μg protein	–	antagonist	519 ± 52 cpm 3H-OA/500 μg protein	–
OCc1ccc2c(c1)OCO2 [Piperonyl alcohol]	1124 ± 083 cpm 3H-OA/500 μg protein	–	antagonist	862 ± 61 cpm 3H-OA/500 μg protein	–
C=C(C)[C@H]1CC=C(C)CC1 [R-limonene]	1436 ± 133 cpm 3H-OA/500 μg protein	Non-OAR Specific Toxicants	–	–	–
C/C=C/c1ccc(OC)cc1 [Trans-Anethole]	1104 ± 110 cpm 3H-OA/500 μg protein	moderate OAR antagonists	antagonist	970 ± 87 cpm 3H-OA/500 μg protein	–
COc1cc(C=O)ccc1O [Vanillin]	1030 ± 83 cpm 3H-OA/500 μg protein	–	antagonist	700 ± 55 cpm 3H-OA/500 μg protein	–
CC(C)=CCCC(C)CC=O (stereo not shown) [citronellal]	–	–	–	–	Mortality (American cockroach [2]; [7]): 0/10; Mortality (American cockroach [2]; 500 μg/roach injected, 48 hr.): 0/10; Mortality (American cockroach [2]; [8]): 0/10
C=C(C)[C@H]1CC=C(C)CC1 [d-limonene]	–	–	–	–	activity/binding at octopamine receptor sites, in words [1]: no activity against octopamine receptor sites; dpm 3H-OA/500 μg protein [1, 4]: 1194 ± 101 dpm 3H-OA/500 μg protein; dpm 3H-OA/500 μg protein [1, 5]: 866 ± 71 dpm 3H-OA/500 μg protein; Mortality (American cockroach [2]; [7]): 0/10; Mortality (American cockroach [2]; 500 μg/roach injected, 48 hr.): 0/10; Mortality (American cockroach [2]; [8]): 0/10
Cc1ccc(C(C)C)cc1 [p-cymene]	1142 ± 074 cpm 3H-OA/500 μg protein	moderate OAR antagonists	antagonist	804 ± 057 cpm 3H-OA/500 μg protein	–
CC1=CC[C@H](C(C)C)C=C1 [α-phellandrene]	2353 ± 343 cpm 3H-OA/500 μg protein	OAR Agonists	agonist	–	–
Citronellal 80	–	moderate OAR antagonists	antagonist	–	dpm 3H-OA/500 μg protein [1, 4]: 725 ± 95 dpm 3H-OA/500 μg protein; dpm 3H-OA/500 μg protein [1, 5]: 526 ± 33 dpm 3H-OA/500 μg protein
